For data set [1] the following is noted: comparison value, source not stated; cited from earlier work.
A short description of data set [2]: Solubility in water / D2O, observed during 1H NMR experiments. It counts as physicochemical. The source says:
The formation of inclusion complex between 7-hydroxycarbonyl-2,4,9-trithiaadamantane and β-cyclodextrin was evident in the 1H NMR experiments. […] Thus, a 1:1 mixture of 7-hydroxycarbonyl-2,4,9-trithiaadamantane and β-cyclodextrin (3.5×10^−3 M) formed a clear solution in D2O in an NMR sampling tube. At the low concentration limit, this change in the solubility of 7-hydroxycarbonyl-2,4,9-trithiaadamantane in water is attributed to the molecular interactions between water insoluble 7-hydroxycarbonyl-2,4,9-trithiaadamantane and water soluble β-cyclodextrin. […] Similar phenomena in cyclodextrin inclusion complexes have been observed previously. Without being bound by theory, these spectral changes were attributed at least in part to the dynamic exchanges between uncomplexed species and the intimately included 7-hydroxycarbonyl-2,4,9-trithiaadamantane in β-cyclodextrin in aqueous solutions. […] The simultaneous observation of changes in the chemical shift of the β-cyclodextrin at H-3 and H-5 also indicated the binding interaction was dominated by the inclusion of the 7-hydroxycarbonyl-2,4,9-trithiaadamantane guest inside the host β-cyclodextrin cavity.

The nature of data set [3]: 1H NMR titration, stability constant of the inclusion complex (Benesi-Hildebrand). It counts as physicochemical. The protocol: The equilibrium constant of the formation of the inclusion complex provides a relative measurement of the thermodynamic driving force for the guest and host binding. NMR Titration was performed by measuring chemical shift changes as a function of the relative concentrations of the host and guest. The changes of the chemical shifts were measured for the H-3 and H-5 peaks of the host and Ha and Hb of the guest in the following scheme, which represents the inclusion complex formation of 7-hydroxycarbonyl-2,4,9-trithiaadamantane with β-cyclodextrin:
The data in Table 1 were also used to calculate the stability constant of the 7-hydroxycarbonyl-2,4,9-trithiaadamantane/β-cyclodextrin inclusion complex by applying the Benesi-Hildebrand equation having the formula: 1/Δδi=(1/KΔδc)(1/Hi)+1/Δδc where the Δδi represents the observed chemical shift difference between the free guest and complexed guest, Hi represents the total host concentration, and Δδc represents the guest chemical shift difference between a completely complexed state and completely free state. In order to use Benesi-Hildebrand equation, the host molecule must be present in excess. The stability constant was determined from simultaneous fits of three chemical shift data sets. The stability constant of 7-hydroxycarbonyl-2,4,9-trithiaadamantane/β-cyclodextrin in water was thus measured to be 1550 M^−1 (logK=3.19). […]

Take `O=C(O)C12CC3CC(CC(C3)C1)C2` [1-adamantane carboxylic acid]: in data set [1], the “stability constant K of the β-cyclodextrin inclusion complex (comparison)” value is 188 M⁻¹.

For the compound `O=C(O)C12CC3SC(C1)SC(C2)S3` [7-hydroxycarbonyl-2,4,9-trithiaadamantane], in data set [2] (water, without β-cyclodextrin), the solubility in water entry is listed as “dissolves only slightly”. Further, in data set [2] (β-cyclodextrin present, 1:1 mixture (3.5×10^−3 M) formed a clear solution in D2O), the “change of solubility in water with β-cyclodextrin present” value is on record as “increased visibly”. Further, in data set [3] (1:1 complex, in water (D2O), room temperature, 1H NMR titration), the “association (stability) constant of the inclusion complex with β-cyclodextrin” value amounted to 1550 M⁻¹. In addition, the “logK of the stability constant of the β-cyclodextrin inclusion complex” value in data set [3] (in water) is recorded as 3.19.

These data come from patent publication US7501529B2, “7-Ethynyl-2,4,9-trithiaadamantane and related methods” (The University of Akron, priority 2003, dated 2009).
